The values below come from publication PMC11998406 (BMC Chemistry, 2025).

Data set [1] concerns the target BChE (Equus caballus, UniProt P81908). Kind of data set: Kinetic study of BChE inhibition. Type of data set: biochemical, horse. Conditions: 13s at 0, 5, 20, 40 µM; butyrylthiocholine iodide 187.5-3000 µM.
In data set [2] the test system is SH-SY5Y neuroblastoma cell line. Kind of data set: Cell viability. The note with it: up to 25 µM. Type of data set: cell-based.

Chain of BChE (P81908 whole entry): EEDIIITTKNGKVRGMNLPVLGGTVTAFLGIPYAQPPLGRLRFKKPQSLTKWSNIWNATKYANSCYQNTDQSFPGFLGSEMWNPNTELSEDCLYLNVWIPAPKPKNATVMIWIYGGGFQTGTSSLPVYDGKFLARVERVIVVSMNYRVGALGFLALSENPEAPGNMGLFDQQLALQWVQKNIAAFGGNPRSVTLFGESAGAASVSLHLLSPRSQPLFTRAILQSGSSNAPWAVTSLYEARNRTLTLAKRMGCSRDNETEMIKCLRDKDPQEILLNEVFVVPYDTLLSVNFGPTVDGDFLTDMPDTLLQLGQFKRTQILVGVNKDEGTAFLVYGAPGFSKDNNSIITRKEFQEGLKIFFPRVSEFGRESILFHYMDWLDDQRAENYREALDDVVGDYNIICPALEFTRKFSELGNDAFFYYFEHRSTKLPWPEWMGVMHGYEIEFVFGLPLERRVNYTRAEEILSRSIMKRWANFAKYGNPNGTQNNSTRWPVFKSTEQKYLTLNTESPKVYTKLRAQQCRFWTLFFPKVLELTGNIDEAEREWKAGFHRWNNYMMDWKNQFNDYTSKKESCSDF

On to `Cc1ccc(Cn2cc(COc3ccc(-c4nnc(-c5ccc([N+](=O)[O-])cc5)o4)cc3)nn2)cc1` [Compound 13s, 2-(4-((1-(4-Methylbenzyl)-1 H-1,2,3-triazol-4-yl)methoxy)phenyl)-5-(4-nitrophenyl)-1,3,4-oxadiazole], for which the “mechanism of BChE inhibition (Lineweaver-Burk)” value in data set [1] is on record as “competitive inhibition pattern”. Also, in data set [2], the toxicity entry is on record as “no toxicity”.
